Reference: patent US20200270309A1, “MALEIMIDE GROUP-MODIFIED ANGIOGENESIS INHIBITOR HM-1 AND USE THEREOF” (NANJING ANJI BIOLOGICAL TECHNOLOGY CO., LTD, priority 2017, published 2020)
Peptide text beside a SMILES is read from it. * marks the point of attachment. X61 = O=C1C=CC(=O)N1c1cccc(CCCC(=O)*)c1

Assays:
splenic lymphocytes = assay: Proliferation of splenic lymphocytes in mice (ConA, MTT); type: cell-based; settings: ConA-stimulated mouse splenic lymphocytes, 48 h
How it was run: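 Proliferation read as OD 570 nm after 4 h MTT and DMSO solubilisation, five parallel wells. Before that, ConA-stimulated splenic lymphocytes from mice, 5×10^6 cells/mL in 10% calf serum RPMI 1640, were cultured 48 h at 37° C. with different peptide concentrations; controls were blank, ConA alone and dexamethasone.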

[1] = tested on: choroidal neovascularization; assay: Choroidal neovascularization in rats (laser photocoagulation, FFA); type: in vivo; settings: BN rats
How it was run: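 Male BN rats aged 6-8 weeks were given 8 krypton-laser spots around the optic disc (647.1 nm, 350 mW, 50 μm, 0.05 s). Once the model was confirmed, groups of 5 got daily intravitreal compound at 0.05 μM or saline for 1 week. FFA followed at 3, 7, 14 and 28 days after dosing.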

adjuvant arthritis = assay: Rat adjuvant arthritis (AA) animal model; type: in vivo, SD rats; settings: 4.0 mg/kg
[2] = tested on: carrageenan-induced toe swelling; assay: Carrageenan-induced toe swelling in rats; type: in vivo; settings: SD rats; for Swelling degree 1 h: 1 h after carrageenan; for Swelling degree 3 h: 3 h after carrageenan; for Swelling degree 5 h: 5 h after carrageenan; for Swelling degree 7 h: 7 h after carrageenan
How it was run: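 Paw swelling, in mL, is the post-inflammation minus pre-inflammation volume of the right hind foot, read as overflow liquid when immersed to a pen-marked joint. Treatment was daily injection over 3 d; model group received saline of the same volume.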

[3] = tested on: collagen-induced arthritis; assay: Mouse collagen-induced arthritis (CIA) animal model; type: in vivo; settings: DBA/1 mice CIA model, dose 4.0 mg/kg, subcutaneous from day 30, n=10
HUVECs = assay: Transwell migration inhibition on HUVECs; type: cell-based, human; settings: for Inhibition rate (%): HUVEC migration vs blank control; for Cell migration number (Mean ± SD): HUVECs, transwell, 24 h
[4] = Half-lives and pharmacokinetic parameters of polypeptides vs HM-1; settings: in vivo
[5] = day 3 after administration, total light spot number was 297, 0.05 μM in the vitreous chamber once a day for 1 week
[6] = day 7 after administration, total light spot number was 186, 0.05 μM in the vitreous chamber once a day for 1 week
[7] = day 14 after administration, total light spot number was 137, 0.05 μM in the vitreous chamber once a day for 1 week
[8] = day 28 after administration, total light spot number was 69, 0.05 μM in the vitreous chamber once a day for 1 week
[9] = intravenous in the tail once every five days from day 10, mean±SD

Compound: C[C@H](NC(=O)CNC(=O)[C@H](CCCNC(=N)N)NC(=O)CCCc1cccc(N2C(=O)C=CC2=O)c1)C(=O)N[C@@H](CC(=O)O)C(=O)N[C@@H](CCCNC(=N)N)C(=O)N[C@@H](C)C(=O)NCC(=O)NCC(=O)NCC(=O)NCC(=O)N[C@@H](CCCNC(=N)N)C(=O)NCC(=O)N[C@@H](CC(=O)O)C(=O)O [X27] (X61-RGADRAGGGGRGD-OH)
- A570 nm/A630 nm (splenic lymphocytes; polypeptide dose 0.05 μM): 0.5388 ± 0.0643
- Inhibition rate (%) (splenic lymphocytes; polypeptide dose 0.05 μM): 20.23%
- A570 nm/A630 nm (splenic lymphocytes; polypeptide dose 0.1 μM): 0.5231 ± 0.0967
- Inhibition rate (%) (splenic lymphocytes; polypeptide dose 0.1 μM): 22.55%
- A570 nm/A630 nm (splenic lymphocytes; polypeptide dose 0.2 μM): 0.4792 ± 0.0849
- Inhibition rate (%) (splenic lymphocytes; polypeptide dose 0.2 μM): 29.08%
- CNV Incidence (%) [1, 5]: 54.88%
- Leakage Light spot number [1, 5]: 163
- CNV Incidence (%) [1, 6]: 46.24%
- Leakage Light spot number [1, 6]: 86
- CNV Incidence (%) [1, 7]: 42.34%
- Leakage Light spot number [1, 7]: 58
- CNV Incidence (%) [1, 8]: 36.23%
- Leakage Light spot number [1, 8]: 25
- Clinical score (adjuvant arthritis; intravenous in the tail once every five days from day 10, four paws scored 0-4, max 16, mean±SD): 5.63 ± 1.12
- Joint swelling degree (adjuvant arthritis; [9]): 0.74 ± 0.17 mm
- Left and right paw swelling degree (adjuvant arthritis; [9]): 3.86 ± 0.85 mm
- Swelling degree 1 h ([2]; 2.0 mg/kg once a day for 3 d): 0.27 ± 0.13 mg
- Swelling degree 3 h ([2]; 2.0 mg/kg once a day for 3 d): 0.33 ± 0.14 mg
- Swelling degree 5 h ([2]; 2.0 mg/kg once a day for 3 d): 0.39 ± 0.17 mg
- Swelling degree 7 h ([2]; 2.0 mg/kg once a day for 3 d): 0.36 ± 0.16 mg
- Swelling degree 1 h ([2]; 4.0 mg/kg once a day for 3 d): 0.24 ± 0.12 mg
- Swelling degree 3 h ([2]; 4.0 mg/kg once a day for 3 d): 0.33 ± 0.16 mg
- Swelling degree 5 h ([2]; 4.0 mg/kg once a day for 3 d): 0.32 ± 0.17 mg
- Swelling degree 7 h ([2]; 4.0 mg/kg once a day for 3 d): 0.34 ± 0.14 mg
- Joint swelling degree (mm) [3]: 0.78 ± 0.19 mm
- Left and right paw swelling degree (mm) [3]: 0.75 ± 0.13 mm
- Clinical score ([3]; highest score 16): 8.75 ± 1.43
- Inhibition rate (%) (HUVECs; dose 0.05 μM): 46.39%
- Inhibition rate (%) (HUVECs; dose 0.1 μM): 49.01%
- Inhibition rate (%) (HUVECs; dose 0.2 μM): 53.38%
- Cell migration number (Mean ± SD) (HUVECs; dose 0.05 μM): 574.65 ± 60.83
- Cell migration number (Mean ± SD) (HUVECs; dose 0.1 μM): 546.51 ± 46.67
- Cell migration number (Mean ± SD) (HUVECs; dose 0.2 μM): 499.65 ± 59.06
- AUC(0-inf) [4]: 26200 ± 7250 ng·h/mL
- MRT inf [4]: 46.9 ± 9.74 h
- clearance [4]: 0.635 mL/min/kg
- half-life ([4]; T1/2β (half-life)): 1951 ± 15 min
